From patent US20180221371A1, “TREATMENT FOR THE FETUS WITH CONGENITAL HEART DISEASE” (CHILDREN'S NATIONAL MEDICAL CENTER, priority 2015, published 2018)
“Also recorded” adds a separate entry of the source.

Assays:
[1] = cited from earlier work
[2] = in vivo; cited from earlier work
WM integrity and damage = conditions: in vivo; cited from earlier work
Myelin Basic Protein = test: Expression of myelin basic protein (Western blot, immunohistochemistry), mouse model of chronic hypoxia; type: in vivo, mice
Description: (§1) FIG. 3. Correspondence between human and rodent gestation periods. Regarding WM development, postnatal days 3-11 in mice correspond to the 3rd trimester of human pregnancy. The murine model was used by the inventors to investigate the effects of hypoxia and treatment of hypoxia by BH4. A mouse model of chronic hypoxia during a period that corresponds to the 3rd trimester in human white matter development is described by […], et al ^47 and by Raymond, et al. ^48, both of which are incorporated by reference. Three groups of mice: Normoxic controls (Nx), Hypoxic (Hx), Hypoxic treated with BH4 (Hx-BH4). Hx and Hx-BH4 mice were kept at 10.5% FiO2 from postnatal day 3 to 11-a period of WM development equivalent to the 3rd trimester in humans as illustrated by FIG. 3. BH4 brain levels were quantified and compared between Nx (n=11) and Hx (n=12). Densities of cells expressing CNP, a marker of oligodendrocytes which are cells responsible for myelination, and Caspase3, an apoptosis marker, were compared between all groups (n=3-6 each). Expression of myelin basic protean, a myelination marker, was quantified using Western Blot (n=7-12 each).

[3] = tested on: oligodendrocytes (CNP positive cells); test: Oligodendrocyte density (CNP positive cells) in white matter, mouse model of chronic hypoxia; type: in vivo, mice; conditions: Hx-BH4 vs Hx; 10.5% FiO2 postnatal day 3 to 11; n=3-6 each
Description: as §1

[4] = tested on: apoptotic cells (Caspase3 positive); test: Apoptotic cell density (Caspase3 positive) in white matter, mouse model of chronic hypoxia; type: in vivo, mice
Description: as §1

In the case of `C[C@H](O)[C@H](O)[C@H]1CNc2nc(N)[nH]c(=O)c2N1` [BH4, Tetrahydrobiopterin], the “Safety and tolerability in long-term follow-up studies” value ([1]; humans, wide range of doses) is given as “safe and well tolerated”, the Teratological effects ([1]; in vivo) is given as “no teratological effects have been documented” and the “Maternal BH4 treatment in pregnant females” value ([1]; recent trials) is given as “efficient and safe”. For the same compound, the “Placental crossing and fetal tissue distribution” value [2] was “crosses the placenta and distributes throughout fetal tissues, including the brain”, the “WM integrity and damage in children with phenylketonuria treated early” value (WM integrity and damage) was “Improvements of WM integrity and damage” and the “Effect of BH4 treatment on hypoxia-decreased expression of myelin basic protein” value (Myelin Basic Protein; Hx-BH4 vs Hx, p=0.006, 10.5% FiO2 postnatal day 3 to 11, n=7-12 each) was “mitigated by BH4 therapy; also recorded: increased with BH4 treatment”. For the same compound, the “Expression of myelin basic protein, Hx-BH4 compared with normoxic controls” value (Myelin Basic Protein; Hx-BH4 vs Nx) was “no significant difference between normoxic controls (Nx) and hypoxic mice treated with BH4 (Hx-BH4)”, the “Effect of BH4 treatment on hypoxia-induced increase of oligodendrocyte density” value [3] was “not limited by BH4 therapy; also recorded: did not limit this effect” and the “Effect of BH4 treatment on hypoxia-increased WM apoptosis (apoptotic cell density)” value ([4]; Hx-BH4 vs Hx, p=0.01, 10.5% FiO2 postnatal day 3 to 11, n=3-6 each) was “mitigate this effect; also recorded: decreased with BH4 treatment”. For the same compound, the “Apoptotic cell density, Hx-BH4 compared with normoxic controls” value ([4]; Hx-BH4 vs Nx) was “no difference in apoptotic cell density between Nx and Hx-BH4”.
